US12570661B2, “Isoform-specific aldehyde dehydrogenase inhibitors” (The Board of Trustees of the Leland Stanford Junior …, priority 2020, dated 2026)
Where two headings read alike, the source gives them in different places.

What was measured:
[1] = molecular target: T1, ALDH1B1 (Homo sapiens, UniProt P30837); assay: ALDEFLUOR assay of cellular ALDH1B1 activity in ALDH1B1-transfected ALDH1A3−/− A375 cells; format: cell-based; settings: for IC50: ALDEFLUOR, ALDH1B1-overexpressing ALDH1A3−/− A375 cells, read-out: ALDH1B1(in cellulo) IC50
T1 sequence (P30837 18-517): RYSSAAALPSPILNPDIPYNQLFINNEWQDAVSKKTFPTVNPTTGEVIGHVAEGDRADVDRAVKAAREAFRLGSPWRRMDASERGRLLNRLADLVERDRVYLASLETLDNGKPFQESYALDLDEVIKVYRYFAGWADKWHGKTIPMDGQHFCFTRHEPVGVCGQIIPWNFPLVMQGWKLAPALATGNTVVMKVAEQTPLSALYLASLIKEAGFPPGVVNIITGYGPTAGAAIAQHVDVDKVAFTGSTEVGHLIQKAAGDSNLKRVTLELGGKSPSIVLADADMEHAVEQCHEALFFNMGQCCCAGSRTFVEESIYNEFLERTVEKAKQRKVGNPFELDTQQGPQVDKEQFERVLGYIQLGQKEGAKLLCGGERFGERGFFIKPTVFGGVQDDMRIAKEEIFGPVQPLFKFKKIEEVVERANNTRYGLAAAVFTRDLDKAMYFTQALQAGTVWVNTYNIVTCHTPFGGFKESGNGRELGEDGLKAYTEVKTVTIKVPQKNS
Protocol: ALDH1A3^−/− A375 cells were seeded into a 6-well plate at a density of 5×10^5 cells/well and cultured for 24 h. The cells were then transfected with either pCMV6-entry, pCMV6-GFP (Addgene, plasmid 11153), or pCMV-ALDH1B1. After 24 h, the media was replaced and transfection efficiencies were estimated by the EGFP-positive cells in the pCMV-GFP-transfected well. The cells were cultured for another 24 h and their ALDH activities were quantified using the ALDEFLUOR assay. Briefly, the cells were isolated from the plate with trypsin and resuspended in ALDEFLUOR assay buffer (STEMCELL Technologies) at a concentration of 4×10^5 cells/mL. Each ALDEFLUOR assay used 0.5 mL of this cell suspension, and the cells were treated with individual compounds for 15 min at 37° C. and 5% CO2. The cell suspensions were then treated with 2.5 μL ALDEFLUOR reagent and incubated for an additional 30 min at 37° C. and 5% CO2. The cells were then collected by centrifugation (450×g) for 5 min at room temperature, resuspended in 200 μL assay buffer, and analyzed with an LSR II flow cytometer (BD Biosciences) at the Stanford FACS facility.

[2] = HEK-293T cytotoxicity (cell viability) assay; format: cell-based; settings: human, HEK-293T cells; adherent HEK-293T, 4-5 days, CellTiter-Glo; read-out: HEK293T GI50
Protocol: HEK-293T cells were seeded into a 96-well plate at a density of 5×10^3 cells/well and treated with varying concentrations of selected compounds or an equivalent amount of DMSO vehicle. The cells were cultured for 4-5 days without a media change, and after the DMSO-treated cells approached 100% confluence, the cell viabilities were measured using a CellTiter-Glo 3D Cell Viability Assay kit (Promega) and a Veritas microplate luminometer (Turner BioSystems) as described above.

[3] = test system: NIH-3T3 cells; assay: Seahorse oxygen-consumption-rate assay (NIH3T3); format: cell-based, murine; settings: Mus musculus
[4] = test system: SW480 cells; assay: Seahorse oxygen-consumption-rate assay (SW480); format: cell-based; settings: Homo sapiens
Protocol: SW480 cells were seeded into a XF96 microplate (Agilent) at a density of 2×10^4 cells/well and cultured for 24 h. The cells were then incubated for 1 h at 37° C. in a non-CO2 incubator, and the plate was then loaded into a 96-well Seahorse XF analyzer (Agilent) and sequentially injected with the indicated compounds, 1 μM oligomycin A, 1 μM FCCP, or 0.5 μM rotenone/antimycin according to the Agilent Mito Stress protocol. The oxygen consumption rates (OCRs, pmol/min) for each well were measured every 5 min for a 15-min period. Basal OCR values was normalized as 100% for data analyses.

[5] = test system: SW480 cells (adherent); assay: Cell viability assay, adherent SW480 cultures; format: cell-based, human; settings: adherent culture, 7 days
Protocol: (§1) SW480 or HCT116 cells were seeded into regular or Matrigel-coated 96-well plates at a density of 1000 cells/well. The cells were cultured in the corresponding adherent or spheroid culture medium (200 μL/well) containing the designated compounds or an equivalent amount of DMSO vehicle. Each culture was maintained for 7 days, and then cell viabilities were measured using a CellTiter-Glo 3D Cell Viability Assay kit (Promega). Briefly, 100 μL of the culture medium was removed from each well and replaced with 100 μL 3D Cell Assay reagent. The cells in each well were next homogenized by vigorous pipetting, and the plate was incubated for 10 min at room temperature to stabilize the chemiluminescent signal. A 150-μL aliquot from each well was then transferred into a white opaque 96-well assay plate (flat-bottom and non-treated; Corning Costar) and luminescence intensities were measured with a Veritas microplate luminometer (Turner BioSystems).

[6] = test system: SW480 cells (spheroid); assay: Matrigel spheroid growth / viability assay, SW480; format: cell-based; settings: for effect on SW480 spheroid formation: 2-μM dose; for GI50: Homo sapiens, SW480, 168 h
Protocol: To prepare Matrigel-coated culture plates, 96-well and 24-well plates were placed on ice and coated with 25 μL or 300 μL, respectively, of Matrigel matrix (Corning, LDEV-free) that had been thawed overnight at 4° C. The plates were then placed in a 37° C. incubator for 30 min to allow the Matrigel to solidify. SW480 or HCT116 cells were suspended in spheroid culture medium (RPMI-1640 containing 20 ng/mL recombinant human epidermal growth factor (Abcam, ab9697), 20 ng/mL recombinant human fibroblast growth factor (BioVision, 4037), 5 μg/mL heparin (Sigma), 1× N-2 supplement (Thermo Fisher Scientific), 100 U/mL penicillin, and 100 μg/mL streptomycin) and then seeded into the 96-well and 24-well Matrigel-coated plates at densities of 1,000 or 5,000 cells/well and total well volumes of […] or 1 mL, respectively. Compounds were diluted in spheroid culture medium and added to the wells, and the spheroid were grown at 37° C. with 5% CO2 for 7 days.
To quantify spheroid growth at the 7-day endpoint, unstained spheroids were imaged with phase-contrast illumination using a Keyence BZ-X710 microscope. Some cultures were also stained with crystal violet to enable brightfield imaging. Briefly, the Matrigel spheroids cultures were treated with PBS containing 0.5% crystal violet and 5% methanol for 15 min at 37° C. and then gently washed 4×5 min with PBS. Spheroid sizes were quantified with ImageJ (Fiji) software using masks created with the default “Threshold” function and foreground/background adjustments to optimize masking fidelity. The full field of view was then selected for “Analyze Particles” analysis, providing numbered list of each spheroid and its area in the micrograph. In the few cases that two adjacent spheroids were treated as one object by the image processing software, their measurements were manually corrected using the “Freehand Selections” tool. To exclude background and debris from dead cells, spheroids with areas less than 500 μm^2 were excluded from the image analyses.
as §1

[7] = Matrigel spheroid culture, 7 days, read-out: Spheroid SW480 GI50

IC50 [1] [nM] | IC50 [4] [nM] | GI50 ([5]; Homo sapiens, SW480, 168 h) [nM] | GI50 [6, 7] [nM] | effect on ALDH1B1-dependent ALDEFLUOR signal (cellular ALDH1B1 activity) ([1]; flow cytometry) | SMILES | GI50 [2] [nM] | IC50 [3] [nM] | effect on SW480 spheroid formation [6] | GI50 [5] [nM] | GI50 ([6]; read-out: Spheroid SW480 GI50 (nM), Matrigel spheroid culture, 7 days) [nM]
38 | 540 | 570 | 820 |  | COc1ccccc1-n1cc(-c2ccc(-c3ccccc3)cc2)[n+]2c1CCCCC2 [Imidazolium 2] | 230 | 180 | strongly suppressed SW480 spheroid formation |  | 
35 |  | 5800 | 1600 |  | COc1ccccc1C1=CN(c2ccc(-c3ccccc3)cc2)C2=NCCCCN12 [HPI-273] | 2800 | 190 |  |  | 
22 | 340 | 850 | 960 |  | COc1ccccc1-c1ccc(-c2cn(-c3ccccc3OC)c3[n+]2CCCCC3)cc1.[Br-] [Imidazolium 8] | 160 | 130 | strongly suppressed SW480 spheroid formation |  | 

Further lines, the molecule ahead of its results:

SMILES | IC50 [1] [nM] | IC50 [4] [nM] | GI50 ([5]; Homo sapiens, SW480, 168 h) [nM] | GI50 [6, 7] [nM] | effect on ALDH1B1-dependent ALDEFLUOR signal (cellular ALDH1B1 activity) ([1]; flow cytometry) | GI50 [2] [nM] | IC50 [3] [nM] | effect on SW480 spheroid formation [6] | GI50 [5] [nM] | GI50 ([6]; read-out: Spheroid SW480 GI50 (nM), Matrigel spheroid culture, 7 days) [nM]
COc1ccccc1C1=CN(c2ccc(-c3ccccc3)cc2)C2=NCCCN12 [STL5-T-0002] | 110 |  |  |  |  | 8900 | 850 |  | 8200 | 750
COc1ccccc1-n1cc(-c2ccccn2)[n+]2c1CCCCC2 [Compound 63] |  |  |  |  | had no effect |  |  | did not impede the growth |  | 
